Values joined by “and” are separate entries in the source; they are usually repeats but may differ in a detail not shown here. Identical values can stand only once.
What was measured:
Vaccinia NYCBOH strain = format: cell-based; settings: read-out: IC50, inhibition of infectivity of Vaccinia virus
[1] = Iminosugar safety study, C57/B1/6 mice; settings: oral suspension twice a day for 7 days at 100 and 10 mg/kg
[2] = Iminosugar safety study, BALB/c mice; settings: for weight loss compared to vehicle only control: oral suspension twice a day for 7 days at 100 and 10 mg/kg
Cowpox Brighton = format: in vivo, BALB/C mice; settings: n=10
[3] = mouse, in vivo

| SMILES | IC50 (Vaccinia NYCBOH strain) [µM] | weight loss compared to vehicle only control [1] | weight loss compared to vehicle only control [2] | percentage of surviving mice (Cowpox Brighton) | weight loss or adverse effects [3] | general health, clinical signs ([2]; highest concentration (100 mg/kg twice a day, 7 days), symptoms ceased when treatment was done) |
| --- | --- | --- | --- | --- | --- | --- |
| CCCCN1C[C@H](O)[C@@H](O)[C@H](O)[C@H]1CO [UV-1, N-Butyl deoxynojirimycin] | 90 | did not show any significant signs of weight loss | did not show any significant signs of weight loss |  |  |  |
| CCCOCCCCCCN1C[C@H](O)[C@@H](O)[C@H](O)[C@H]1CO [UV-3, N-(7-Oxadecyl)deoxynojirimycin] | 7 |  |  |  |  |  |
| COCCCCCCCCCN1C[C@H](O)[C@@H](O)[C@H](O)[C@H]1CO [UV-4, N-(9-Methoxynonyl) deoxynojirimycin] | 59 | did not show any significant signs of weight loss | did not show any significant signs of weight loss | 100% and 70% | no weight loss or adverse effects observed |  |
| [N-]=[N+]=Nc1ccc(NCCCCCCN2C[C@H](O)[C@@H](O)[C@H](O)[C@H]2CO)c([N+](=O)[O-])c1 [UV-5, N—(N-{4′-azido-2′-nitrophenyl}-6-aminohexyl)deoxynojirimycin] | 3 | did not show any significant signs of weight loss | did not show any significant signs of weight loss |  |  | signs of diarrhea, red urine, and a ruffled appearance |
| CCCCCCCCCN1C[C@H](O)[C@@H](O)[C@H](O)[C@H]1CO [UV-2, N-Nonyl deoxynojirimycin] | 21 |  |  |  |  |  |
